Tests used:
Format in all cases: biochemical, human
[1] = tested on: plasma deficient in coagulation factor IX; assay: Thrombin generation assay in plasma deficient in coagulation factor IX
Experimental: (§1) The Calibrated Automated Thrombogram® assays the generation of thrombin in clotting plasma using a microtiter plate reading fluorometer (Fluoroskan Ascent, ThermoLab systems, Helsinki, Finland) and Thrombinoscope® software (Thrombinoscope BV, Maastricht, The Netherlands). The assay was carried out as described by Hemker et al. (Pathofysiol. IIaemost. Thromb. 2003, 33, 4-15), and the Thrombinoscope® manual. Coagulation was triggered by recalcification in the presence of 1 or 5 pM recombinant human tissue factor (Innovin®, Siemens, Marburg, Germany), 4 μM phospholipids, and 417 μM fluorogenic substrate Z-Gly-Gly-Arg-AMC (Bachem, Bubendorf, Switzerland). Fluorescence was monitored using the Fluoroskan Ascent fluorometer (ThermoLabsystems, Helsinki, Finland), and the lag time, peak thrombin, velocity index and area under the curve (ETP) were calculated using the Thrombinoscope® software (Thrombinoscope BV).

[2] = tested on: thrombin generation in pooled normal plasma; assay: Calibrated Automated Thrombogram thrombin generation assay in pooled normal plasma; conditions: no anticoagulant; cyclodextrin 100 μM unless otherwise indicated; 1 pM TF
Experimental: FIGS. 3-8, 12, 14-19 and 22-27: Pooled normal plasma was spiked with cyclodextrins (100 μM, unless otherwise indicated) and anticoagulants. The concentrations of the anticoagulants were 100 ng/ml for dabigatran (A), 100 ng/ml for rivaroxaban (B), 60 ng/ml for apixaban (C), 60 ng/ml for edoxaban (D). The plasmas were subjected to thrombin generation analysis as described in the Materials and Methods section with 1 pM tissue factor (TF) as initiator of coagulation.
as §1
Thrombin generation analyses were performed in pooled normal plasma with and without the addition of anticoagulants.

[3] = tested on: plasma deficient in coagulation factor VIII; assay: Thrombin generation assay in plasma deficient in coagulation factor VIII
Experimental: FIG. 20: Plasma deficient in coagulation factor VIII was spiked with cyclodextrin OKL-1111 (A), OKL-1180 (B), and OKL-1187 (C) at the indicated concentrations.
as §1

[4] = tested on: plasma of a hemophilia A patient containing anti-FVIII antibodies; assay: Thrombin generation in plasma of a hemophilia A patient with anti-factor VIII antibodies; conditions: anti-FVIII antibodies 50 BU
Experimental: FIG. 28: Effect of OKL-1111 (A), OKL-1180 (B) and OKL-1187 (C) on coagulation in plasma of a hemophilia A patient with anti-factor VIII antibodies. BU=Bethesda Units.
as §1
The patient had developed antibodies against factor VIII prior to plasma withdrawal. The plasma contained high levels of anti-FVIII antibodies (50 BU).

**Q.** With O=C(O)CCCCCCCSCC1OC2OC3C(CSCCCCCCCC(=O)O)OC(OC4C(CSCCCCCCCC(=O)O)OC(OC5C(CSCCCCCCCC(=O)O)OC(OC6C(CSCCCCCCCC(=O)O)OC(OC7C(CSCCCCCCCC(=O)O)OC(OC8C(CSCCCCCCCC(=O)O)OC(OC1C(O)C2O)C(O)C8O)C(O)C7O)C(O)C6O)C(O)C5O)C(O)C4O)C(O)C3O (stereo not shown) [OKL-1180] as the compound, how does the “procoagulant activity in factor IX deficient plasma” value [1] read?
**A.** Its value is “procoagulant activity”.

**Q.** And the “procoagulant effect in normal plasma” value [2]?
**A.** Its value is “procoagulant activity”.

**Q.** And the “procoagulant effect in factor VIII deficient plasma” value [3]?
**A.** The value was “procoagulant effects”.

**Q.** What about the “thrombin generation in hemophilia A patient plasma” value [4] of the same compound?
**A.** Its value is “concentration-dependently stimulated thrombin generation”.

Reference: patent US10813944B2, “Cyclodextrins as procoagulants” (STICHTING SANQUIN BLOEDVOORZIENING, priority 2016, dated 2020)
